Results taken from patent US8318684B2, “Antibiotics, bispolides A1, A2, and A3 as well as bispolides B1, B2a, B2b and B3 and processes for producing said antibiotics” (Nimura Genetic Solutions Co., Ltd., priority 2006, dated 2012).
Converted amounts (≈) assume the structure as drawn.

What was measured:
[1] = system: Staphylococcus aureus FDA209P; experiment: Antibacterial spectrum, standard serial dilution method in liquid medium; type: cell-based; conditions: bacto-yeast nitrogen base-glucose-NZ-amine liquid medium, read-out: Minimum growth inhibitory concentration
Description: (§1) The antibacterial spectra of a bispolide A compound and a bispolide B compound were tested on a liquid medium consisting of bacto-yeast nitrogen base (a product of Difco Laboratories)-glucose-NZ-amine by a standard serial dilution method.

[2] = system: MRSA ngs2 (methicillin-resistant strain of Staphylococcus aureus); experiment: as above; type: cell-based; conditions: bacto-yeast nitrogen base-glucose-NZ-amine liquid medium, read-out: Minimum growth inhibitory concentration
Description: as §1

[3] = system: MRSA ngs1 (methicillin-resistant strain of Staphylococcus aureus); experiment: as above; type: cell-based; conditions: bacto-yeast nitrogen base-glucose-NZ-amine liquid medium, read-out: Minimum growth inhibitory concentration
Description: as §1

[4] = system: Bacillus subtilis PCI 219; experiment: as above; type: cell-based; conditions: PCI219, bacto-yeast nitrogen base-glucose-NZ-amine liquid medium, read-out: Minimum growth inhibitory concentration
Description: as §1

[5] = Solubility (physicochemical properties)
[6] = in 50% aqueous ethanol (ethanol:water 1:1 by volume)
[7] = in methanol, ethanol, dimethylsulfoxide (DMSO), acetone and ethyl acetate

| Compound | MIC [1] [µg/mL] | MIC [2] [µg/mL] | MIC [3] [µg/mL] | MIC [4] [µg/mL] | Solubility [5, 6] | Solubility [5, 7] | Solubility ([5]; in water and n-hexane) |
| --- | --- | --- | --- | --- | --- | --- | --- |
| CCC1=C\C=C\C(CC)C(C(C)C(O)CC2(O)CC(OC3CC(O)C(O)C(C)O3)C(CC)C(C)O2)OC(=O)/C=C/C(CC)=C/C=C/C(CC)C(C(C)C(O)CC2(O)CC(OC3CC(O)C(O)C(C)O3)C(CC)C(C)O2)OC(=O)\C=C\1 (stereo not shown) [bispolide A1] | 1.56 (≈ 1.38 µM) | ≤ 0.049 | 12.5 (≈ 11 µM) | 0.39 (≈ 0.344 µM) | sparlingly soluble | Soluble well | insoluble |
| CCC1=C\C=C\C(CC)C(C(C)C(O)CC2(OC)CC(OC3CC(O)C(O)C(C)O3)C(CC)C(C)O2)OC(=O)/C=C/C(CC)=C/C=C/C(CC)C(C(C)C(O)CC2(O)CC(OC3CC(O)C(O)C(C)O3)C(CC)C(C)O2)OC(=O)\C=C\1 (stereo not shown) [bispolide A2] | 1.56 (≈ 1.36 µM) | 3.13 (≈ 2.73 µM) | 1.56 (≈ 1.36 µM) | 0.78 (≈ 0.68 µM) | sparlingly soluble | Soluble well | insoluble |
| CCC1=C\C=C\C(CC)C(C(C)C(O)CC2(OC)CC(OC3CC(O)C(O)C(C)O3)C(CC)C(C)O2)OC(=O)/C=C/C(CC)=C/C=C/C(CC)C(C(C)C(O)CC2(OC)CC(OC3CC(O)C(O)C(C)O3)C(CC)C(C)O2)OC(=O)\C=C\1 (stereo not shown) [bispolide A3] | 1.56 (≈ 1.34 µM) | 3.13 (≈ 2.69 µM) | 1.56 (≈ 1.34 µM) | 0.78 (≈ 0.672 µM) | sparlingly soluble | Soluble well | insoluble |
| CCC1=C\C=C\C(CC)C(C(C)C(O)CC2(O)CC(OC3OC(C)C(O)C(O)C3O)C(CC)C(C)O2)OC(=O)/C=C/C(CC)=C/C=C/C(CC)C(C(C)C(O)CC2(O)CC(OC3CC(O)C(O)C(C)O3)C(CC)C(C)O2)OC(=O)\C=C\1 (stereo not shown) [bispolide B1] | 1.56 (≈ 1.36 µM) | ≤ 0.049 | 0.39 (≈ 0.339 µM) | 0.2 (≈ 0.174 µM) | sparingly soluble | Soluble well | insoluble |
| CCC1=C\C=C\C(CC)C(C(C)C(O)CC2(OC)CC(OC3CC(O)C(O)C(C)O3)C(CC)C(C)O2)OC(=O)/C=C/C(CC)=C/C=C/C(CC)C(C(C)C(O)CC2(O)CC(OC3OC(C)C(O)C(O)C3O)C(CC)C(C)O2)OC(=O)\C=C\1 (stereo not shown) [bispolide B2a] | 1.56 (≈ 1.34 µM) | 1.56 (≈ 1.34 µM) | 1.56 (≈ 1.34 µM) | 0.39 (≈ 0.335 µM) | sparingly soluble | Soluble well | insoluble |
| CCC1=C\C=C\C(CC)C(C(C)C(O)CC2(OC)CC(OC3OC(C)C(O)C(O)C3O)C(CC)C(C)O2)OC(=O)/C=C/C(CC)=C/C=C/C(CC)C(C(C)C(O)CC2(O)CC(OC3CC(O)C(O)C(C)O3)C(CC)C(C)O2)OC(=O)\C=C\1 (stereo not shown) [bispolide B2b] | 0.78 (≈ 0.67 µM) | 3.13 (≈ 2.69 µM) | 1.56 (≈ 1.34 µM) | 0.39 (≈ 0.335 µM) | sparingly soluble | Soluble well | insoluble |
| CCC1=C\C=C\C(CC)C(C(C)C(O)CC2(OC)CC(OC3OC(C)C(O)C(O)C3O)C(CC)C(C)O2)OC(=O)/C=C/C(CC)=C/C=C/C(CC)C(C(C)C(O)CC2(OC)CC(OC3CC(O)C(O)C(C)O3)C(CC)C(C)O2)OC(=O)\C=C\1 (stereo not shown) [bispolide B3] | 1.56 (≈ 1.32 µM) | 3.13 (≈ 2.66 µM) | 1.56 (≈ 1.32 µM) | 0.78 (≈ 0.662 µM) | sparingly soluble | Soluble well | insoluble |
